Measurements from the NIST ThermoML archive (doi:10.1016/j.jct.2006.01.015).

Test: xn = mol fraction of the nth substance listed
Settings: 101 kPa, Liquid

CNC(C)=O [N-methylacetamide] + CC#N
mass density [kg/m3]
Settings	293.15 K	298.15 K	303.15 K	308.15 K	313.15 K	318.15 K
x2 = 0	958.4	954.2	950.1	945.9	941.7	937.6
x2 = 0.0637	951.5	947.2	942.9	938.6	934.3	930
x2 = 0.1232	944.8	940.3	935.9	931.4	927	922.6
x2 = 0.1926	936.5	931.9	927.3	922.8	918.2	913.7
x2 = 0.2665	927.2	922.5	917.8	913.1	908.4	903.7
x2 = 0.3244	919.5	914.7	909.9	905.1	900.3	895.5
x2 = 0.3702	913.2	908.3	903.4	898.5	893.6	888.7
x2 = 0.4365	903.5	898.5	893.5	888.5	883.5	878.5
x2 = 0.4925	894.7	889.6	884.5	879.4	874.3	869.3
x2 = 0.5412	886.6	881.4	876.2	871.1	865.9	860.8
x2 = 0.58	879.8	874.6	869.4	864.2	859	853.8
x2 = 0.6301	870.6	865.3	860.1	854.9	849.6	844.4
x2 = 0.6766	861.6	856.3	851	845.7	840.4	835.1
x2 = 0.7613	843.8	838.4	833	827.7	822.3	816.9
x2 = 0.8305	827.8	822.4	817	811.6	806.2	800.8
x2 = 0.9203	804.8	799.5	794.2	788.8	783.4	778

NC=O [formamide] + CC#N
mass density [kg/m3]
Settings	293.15 K	298.15 K	303.15 K	308.15 K	313.15 K	318.15 K
x2 = 0	1133	1129	1125	1121	1117	1113
x2 = 0.0764	1104.3	1099.7	1095.1	1090.5	1085.9	1081.3
x2 = 0.161	1073.2	1068.1	1063	1057.9	1052.8	1047.7
x2 = 0.2485	1041.1	1035.7	1030.3	1024.7	1019.3	1013.9
x2 = 0.2976	1022.9	1017.3	1011.7	1006.1	1000.5	994.9
x2 = 0.3444	1005.4	999.7	994	988.3	982.6	976.9
x2 = 0.412	980.1	974.3	968.5	962.7	956.9	951.1
x2 = 0.4728	957.8	951.9	946	940.2	934.3	928.3
x2 = 0.5336	935.9	930	924.1	918.2	912.3	906.4
x2 = 0.5862	917.2	911.3	905.4	899.6	893.7	887.8
x2 = 0.6388	898.9	893	887.1	881.3	875.4	869.5
x2 = 0.6994	878	872.2	866.4	860.6	854.8	849
x2 = 0.7554	859.1	853.4	847.7	842	836.3	830.4
x2 = 0.8143	839.6	834	828.1	822.6	817	811.4
x2 = 0.8754	820	814.5	809	803.5	798	792.5
x2 = 0.9398	800.1	794.7	789.2	783.8	778.4	773

CC#N [acetonitrile] + CN(C)C=O
mass density [kg/m3]
Settings	293.15 K	298.15 K	303.15 K	308.15 K	313.15 K	318.15 K
x1 = 0.0654	942	937.5	933	928.6	924.1	919.6
x1 = 0.1303	934.6	930.1	925.6	921.2	916.7	912.2
x1 = 0.1912	927.4	922.9	918.4	914	909.4	904.9
x1 = 0.2586	919	914.5	909.9	905.5	900.9	896.4
x1 = 0.3204	910.9	906.3	901.7	897.2	892.6	888.1
x1 = 0.3851	902	897.4	892.7	888.2	883.6	879
x1 = 0.4596	891.2	886.5	881.8	877.2	872.5	867.9
x1 = 0.5125	883.1	878.4	873.6	869	864.2	859.5
x1 = 0.5925	870	865.2	860.4	855.7	850.9	846.1
x1 = 0.6402	861.7	856.9	852	847.3	842.5	837.6
x1 = 0.6899	852.6	847.8	842.9	838.1	833.2	828.3
x1 = 0.731	844.7	839.8	834.9	830	825.1	820.2
x1 = 0.7736	836.1	831.1	826.1	821.2	816.3	811.4
x1 = 0.8522	818.9	813.9	808.9	803.9	798.9	793.9
x1 = 0.9359	798.9	793.8	788.7	783.6	778.5	773.4
x1 = 1	782.1	776.8	771.5	766.3	761	755.7

CC(=O)N(C)C [N,N-dimethylethanamide] + CC#N
mass density [kg/m3]
Settings	293.15 K	298.15 K	303.15 K	308.15 K	313.15 K	318.15 K
x2 = 0	941	936.5	932	927.6	923.1	918.6
x2 = 0.0815	934.2	929.7	925.2	920.7	916.2	911.7
x2 = 0.1674	926.3	921.8	917.3	912.8	908.3	903.9
x2 = 0.2386	919.2	914.7	910.2	905.7	901.2	896.8
x2 = 0.3133	911.2	906.7	902.2	897.7	893.2	888.8
x2 = 0.3689	904.8	900.3	895.8	891.3	886.8	882.4
x2 = 0.4223	898.3	893.8	889.3	884.8	880.3	875.8
x2 = 0.4722	891.8	887.3	882.7	878.2	873.7	869.2
x2 = 0.5387	882.5	877.9	873.3	868.8	864.2	859.7
x2 = 0.581	876.1	871.5	866.9	862.3	857.7	853.1
x2 = 0.6379	866.9	862.2	857.6	852.9	848.3	843.6
x2 = 0.6794	859.7	855	850.2	845.5	840.8	836.1
x2 = 0.7236	851.5	846.7	841.9	837.1	832.3	827.5
x2 = 0.8071	833.9	829	824.1	819.2	814.3	809.4
x2 = 0.8776	817	812	807	802	797	792
x2 = 0.9424	799.4	794.3	789.2	784.1	779	773.9
